Assay results from patent publication US7348347B2, “Substituted 4,5,6,7-tetrahydrobenzthiazol-2-ylamine compounds” (Gruenenthal GmbH, priority 2004, dated 2008).

Legend:
5-HT uptake = molecular target: T1, 5-HT uptake (Rattus norvegicus, UniProt P31652); test: Inhibition of 5-HT uptake in rat brain synaptosomes; assay type: biochemical; settings: [3H]-5-HT
T1 construct: from tissue; host or cells: rat brain synaptosomes (P2 fraction) from marrow (medulla) and pons
Experimental: The relevant literature reference is enclosed herein by reference and is to be regarded as part of the disclosure.
The homogenate is centrifuged at 4° C. for 10 minutes at 1000 g. Following subsequent centrifugation at 17,000 g for 55 minutes, the synaptosomes (P2 fraction) are obtained, which are then resuspended in 0.32 M […] (0.5 mL/100 mg of the original weight).
The respective uptake was measured in a 96 well microtiter plate. The volume was 250 μL and the incubation was carried out at room temperature (ca 20-25° C.) under a blanket of oxygen.
The 96 samples through were then filtered through a Unifilter GF/B® microtiter plate (Packard) and washed with 200 mL of incubated buffer with the aid of a “Brabdel Cell-Harvester MPXRI 96T”. The Unifilter GF/B plate was dried at 55° C. over a period of 1 h. The plate was then sealed with a back seal® (Packard) and there were then added 35 μL of scintillant fluid per well (Ultima Gold, Packard).
A detailed description of the method is disclosed in the literature, for example, in M. Ch.

NA transporter = molecular target: T2, NA transporter (Rattus norvegicus, UniProt Q63380); test: Inhibition of noradrenaline uptake in rat brain synaptosomes; assay type: biochemical; settings: 10 μM, rat synaptosomes (hypothalamus), [3H]-NA; for inhibition at 10 µM: read-out: % Inhibition of NA uptake [10 μM]
T2 construct: from tissue; host or cells: rat brain synaptosomes (P2 fraction) from hypothalamus
T2 sequence (Q63380 1-617): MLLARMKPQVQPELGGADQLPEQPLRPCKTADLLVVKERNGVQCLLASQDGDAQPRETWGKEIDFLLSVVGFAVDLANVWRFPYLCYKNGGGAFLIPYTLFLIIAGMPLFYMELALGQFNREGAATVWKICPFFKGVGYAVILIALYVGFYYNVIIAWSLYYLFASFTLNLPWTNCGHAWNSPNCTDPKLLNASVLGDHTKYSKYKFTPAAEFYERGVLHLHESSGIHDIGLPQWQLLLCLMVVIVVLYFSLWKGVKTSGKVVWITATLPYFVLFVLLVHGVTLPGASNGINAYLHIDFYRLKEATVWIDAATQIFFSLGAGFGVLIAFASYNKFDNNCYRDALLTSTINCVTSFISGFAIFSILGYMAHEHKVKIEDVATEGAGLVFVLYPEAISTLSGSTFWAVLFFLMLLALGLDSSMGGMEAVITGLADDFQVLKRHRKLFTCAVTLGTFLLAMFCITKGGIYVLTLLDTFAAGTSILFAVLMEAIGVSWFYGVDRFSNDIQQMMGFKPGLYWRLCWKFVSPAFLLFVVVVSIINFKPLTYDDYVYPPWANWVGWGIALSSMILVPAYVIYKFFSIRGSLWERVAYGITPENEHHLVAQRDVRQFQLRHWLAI
Experimental: II. […] For in vitro studies, synaptosomes of rat brain areas are freshly isolated, as described in the article “The isolation of nerve endings from brain” by E. G. Gray and […]. Anatomy 96, pages 79-88, 1962. The relevant literature reference is enclosed herein by reference and is to be regarded as part of the disclosure. […] The homogenate is centrifuged at 4° C. for 10 minutes at 1000 g. […] The respective uptake was measured in a 96 well microtiter plate. The volume was 250 μL and the incubation was carried out at room temperature (ca 20-25° C.) under a blanket of oxygen. […] The 96 samples through were then filtered through a Unifilter GF/B® microtiter plate (Packard) and washed with 200 mL of incubated buffer with the aid of a “Brabdel Cell-Harvester MPXRI 96T”. The Unifilter GF/B plate was dried at 55° C. over a period of 1 h. The plate was then sealed with a back seal® (Packard) and there were then added 35 μL of scintillant fluid per well (Ultima Gold, Packard). Following sealing with a top seal® (Packard) and following adjustment of the equilibrium (approximately over a period of 5 h), the radioactivity is determined in a 1450 Microbeta® (Wallac). […] The amount of protein used in the above determination corresponded to the values known from the literature, such as is described in “Protein measurement with the folin phenol reagent”, Lowry et al., J. Biol. Chem., 193, 265-275, 1951. A detailed description of the method is disclosed in the literature, for example, in […], and B. […] The relevant literature references are incorporated herein by reference and are to be regarded as part of the disclosure.

[1] = rat synaptosomes (medulla and pons)

T1 sequence (P31652 whole entry): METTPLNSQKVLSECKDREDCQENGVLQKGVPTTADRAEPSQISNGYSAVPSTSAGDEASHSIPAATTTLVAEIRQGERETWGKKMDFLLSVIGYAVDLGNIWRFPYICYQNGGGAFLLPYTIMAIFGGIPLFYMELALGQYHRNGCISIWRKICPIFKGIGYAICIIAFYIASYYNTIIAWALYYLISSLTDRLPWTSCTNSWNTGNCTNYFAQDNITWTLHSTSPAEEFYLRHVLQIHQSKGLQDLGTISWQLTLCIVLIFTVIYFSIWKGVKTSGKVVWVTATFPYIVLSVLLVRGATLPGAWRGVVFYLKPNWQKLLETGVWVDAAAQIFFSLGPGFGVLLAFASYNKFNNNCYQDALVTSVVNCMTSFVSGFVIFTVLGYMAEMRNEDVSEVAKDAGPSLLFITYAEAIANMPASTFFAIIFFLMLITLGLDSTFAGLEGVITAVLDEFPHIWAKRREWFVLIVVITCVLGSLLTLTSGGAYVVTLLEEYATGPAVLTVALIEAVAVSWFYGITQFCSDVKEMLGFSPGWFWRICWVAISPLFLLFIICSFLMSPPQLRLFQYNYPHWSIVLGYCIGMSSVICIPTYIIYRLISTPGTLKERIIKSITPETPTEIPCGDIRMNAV

| inhibition at 10 µM (5-HT uptake; [1]) [%] | inhibition at 10 µM (NA transporter) [%] | % Inhibition of 5-HT uptake [10 μM] (5-HT uptake; [1]) [%] | % Inhibition of NA uptake [10 μM] (NA transporter) [%] | SMILES | % Inhibition of 5-HT uptake [10 μM] (5-HT uptake; rat synaptosomes (and pons)) [%] |
| --- | --- | --- | --- | --- | --- |
| 53 | 98 | – | – | COc1cc(OC)c(CN2CCC(NC(=O)C3CCCc4sc(NC(=O)c5ccco5)nc43)C2)c(OC)c1 (centres unmarked) [Example 9, 2-[(Furan-2-carbonyl)amino]-4,5,6,7-tetrahydrobenzthiazol-4-carboxylic acid [1-(-2,4,6-trimethoxybenzyl)pyrrolidin-3-yl]amide] | – |
| 42 | 64 | – | – | CC(C(=O)Nc1nc2c(s1)CCCC2C(=O)N1CCN(C(C)C)CC1)c1ccccc1 (centres unmarked) [Example 10, N-[4-(4-Isopropylpiperazin-1-carbonyl)-4,5,6,7-tetrahydrobenzthiazol-2-yl]-2-phenylpropionamide] | – |
| 55 | 48 | – | – | COc1ccc(C(=O)Nc2nc3c(s2)CCCC3C(=O)NCC2CCN(Cc3c(F)cccc3Cl)C2)cc1 (centres unmarked) [Example 12, 2-(4-Methoxybenzoylamino)-4,5,6,7-tetrahydrobenzthiazol-4-carboxylic acid [1-(2-chloro-6-fluorobenzyl)pyrrolidin-3-yl]methylamide] | – |
| – | – | 50 | 43 | O=C(Cc1cccs1)Nc1nc2c(s1)CCCC2C(=O)NCCCN1CCOCC1 (centres unmarked) [Example 14] | – |
| – | – | 72 | 81 | O=C(Nc1nc2c(s1)CCCC2C(=O)N1CCN(Cc2cc3ccccc3o2)CC1)c1ccoc1 (centres unmarked) [Example 17, Furan-3-carboxylic acid[4-(4-benzofuran-2-ylmethylpiperazin-1-carbonyl)-4,5,6,7-tetrahydrobenzthiazol-2-yl]amide] | – |
| – | – | 57 | 43 | CCCCCC(=O)Nc1nc2c(s1)CCCC2C(=O)NCCCN1CCCCC1C (centres unmarked) [Example 18, 2-Hexanylamino-4,5,6,7-tetrahydrobenzthiazol-4-carboxylic acid[3-(2-methylpiperidin-1-yl)propyl]amide] | – |
| 64 | 77 | – | – | CCOc1ccccc1C(=O)Nc1nc2c(s1)CCCC2C(=O)N1CCN(CCc2ccccc2)CC1 (centres unmarked) [Example 20, 2-Ethoxy-N-[4-(4-phenethylpiperazin-1-carbonyl)-4,5,6,7-tetrahydrobenzthiazol-2-yl]benzamide] | – |
| 47 | 55 | – | – | O=C(COc1ccc(F)cc1)Nc1nc2c(s1)CCCC2C(=O)N1CCN(c2ccccc2)CC1 (centres unmarked) [Example 21, 2-(4-Fluorophenoxy)-N-[4-(4-phenylpiperazin-1-carbonyl)-4,5,6,7-tetrahydrobenzthiazol-2-yl]acetamide] | – |
| 44 | 60 | – | – | CC(C(=O)Nc1nc2c(s1)CCCC2C(=O)NCCC1CCCN1C)c1ccccc1 (centres unmarked) [Example 22, 2-(2-Phenylpropionylamino)-4,5,6,7-tetrahydrobenzthiazol-4-carboxylic acid [2-(1-methylpyrrolidin-2-yl)ethyl]amide] | – |
| 61 | 47 | – | – | CCCC(=O)Nc1nc2c(s1)CCCC2C(=O)N1CCN(Cc2cc3ccccc3o2)CC1 (centres unmarked) [Example 27, N-[4-(4-Benzofuran-2-ylmethylpiperazin-1-carbonyl)-4,5,6,7-tetrahydrobenzthiazol-2-yl]butyramide] | – |
| 48 | 60 | – | – | COc1cccc(N2CCN(C(=O)C3CCCc4sc(NC(=O)c5ccccc5)nc43)CC2)c1 (centres unmarked) [Example 28, N-{4-[4-(3-Methoxyphenyl)piperazin-1-carbonyl]-4,5,6,7-tetrahydrobenzthiazol-2-yl}benzamide] | – |
| 55 | 73 | – | – | CCCC(=O)Nc1nc2c(s1)CCCC2C(=O)NCC1CCN(Cc2ccc(-c3ccccc3)cc2)C1 (centres unmarked) [Example 29, 2-Butyrylamino-4,5,6,7-tetrahydrobenzthiazol-4-carboxylic acid (1-biphenyl-4-ylmethylpyrrolidin-3-yl)methylamide] | – |
| – | – | 63 | 79 | COc1cc(Br)c(CN2CCC(NC(=O)C3CCCc4sc(NC(=O)C(C)c5ccccc5)nc43)C2)cc1OC (centres unmarked) [Example 33] | – |
| – | – | 63 | 50 | CCCCCC(=O)Nc1nc2c(s1)CCCC2C(=O)N1CCN(Cc2c(OC)cc(OC)cc2OC)CC1 (centres unmarked) [Example 34, Hexanoic acid{4-[4-(2,4,6-trimethoxybenzyl)piperazin-1-carbonyl]-4,5,6,7-tetrahydrobenzthiazol-2-yl}amide] | – |
| – | – | 49 | 50 | O=C(Cc1cccs1)Nc1nc2c(s1)CCCC2C(=O)NCCN1CCCCCC1 (centres unmarked) [Example 39, 2-(2-Thiophen-2-ylacetylamino)-4,5,6,7-tetrahydrobenzthiazol-4-carboxylic acid(2-azepan-1-ylethyl)amide] | – |
| 51 | 67 | – | – | O=C(CCc1ccccc1)Nc1nc2c(s1)CCCC2C(=O)NCC1CCN(Cc2cc3ccccc3o2)C1 (centres unmarked) [Example 48, 2-(3-Phenylpropionylamino)-4,5,6,7-tetrahydrobenzthiazol-4-carboxylic acid (1-benzofuran-2-ylmethylpyrrolidin-3-yl)methylamide] | – |
| – | – | 51 | 44 | CC=CC=CC(=O)Nc1nc2c(s1)CCCC2C(=O)NCC1CCN(Cc2c(Cl)cccc2Cl)C1 (centres unmarked) [Example 49, 2-Hexa-2,4-dienoylamino-4,5,6,7-tetrahydrobenzthiazol-4-carboxylic acid[1-(2,6-dichlorobenzyl)pyrrolidin-3-yl]methylamide] | – |
| 72 | 93 | – | – | CCOc1ccc(Br)cc1CN1CCC(NC(=O)C2CCCc3sc(NC(=O)c4ccco4)nc32)C1 (centres unmarked) [Example 50, 2-[(Furan-2-carbonyl)amino]-4,5,6,7-tetrahydrobenzthiazol-4-carboxylic acid [1-(5-bromo-2-ethoxybenzyl)pyrrolidin-3-yl]amide] | – |
| 54 | 44 | – | – | O=C(CCc1ccccc1)Nc1nc2c(s1)CCCC2C(=O)NCC1CCN(Cc2ccc(-c3ccccc3)cc2)C1 (centres unmarked) [Example 55, 2-(3-Phenylpropionylamino)-4,5,6,7-tetrahydrobenzthiazol-4-carboxylic acid (1-biphenyl-4-ylmethylpyrrolidin-3-yl)methylamide] | – |
| – | – | 46 | 45 | CC=CC=CC(=O)Nc1nc2c(s1)CCCC2C(=O)NCC1CCN(Cc2c(F)cccc2Cl)C1 (centres unmarked) [Example 61, 2-Hexa-2,4-dienoylamino-4,5,6,7-tetrahydrobenzthiazol-4-carboxylic acid[1-(2-chloro-6-fluorobenzyl)pyrrolidin-3-yl]methylamide] | – |
| – | – | 48 | 53 | O=C(Nc1nc2c(s1)CCCC2C(=O)N1CCN(c2ccccn2)CC1)c1ccoc1 (centres unmarked) [Example 64, Furan-3-carboxylic acid[4-(4-pyridin-2-ylpiperazin-1-carbonyl)-4,5,6,7-tetrahydrobenzthiazol-2-yl]amide] | – |
| – | – | 97 | 42 | O=C(CC1CCCCC1)Nc1nc2c(s1)CCCC2C(=O)NCC1CCN(Cc2c(Cl)cccc2Cl)C1 (centres unmarked) [Example 67, 2-(2-cyclohexylacetylamino)-4,5,6,7-tetrahydrobenzthiazol-4-carboxylic acid[1-(2,6-dichlorobenzyl)pyrrolidin-3-yl]methylamide] | – |
| – | – | 66 | 90 | O=C(Nc1nc2c(s1)CCCC2C(=O)N1CCN(CCc2ccccc2)CC1)c1ccoc1 (centres unmarked) [Example 71, Furan-3-carboxylic acid[4-(4-phenethylpiperazin-1-carbonyl)-4,5,6,7-tetrahydrobenzthiazol-2-yl]amide] | – |
| 84 | 51 | – | – | O=C(CCc1ccccc1)Nc1nc2c(s1)CCCC2C(=O)N1CCN(c2cccc(C(F)(F)F)c2)CC1 (centres unmarked) [Example 72, 3-Phenyl-N-{4-[4-(3-trifluoromethylphenyl)piperazin-1-carbonyl]-4,5,6,7-tetrahydrobenzthiazol-2-yl}propionamide] | – |

| SMILES | inhibition at 10 µM (5-HT uptake; [1]) [%] | inhibition at 10 µM (NA transporter) [%] | % Inhibition of 5-HT uptake [10 μM] (5-HT uptake; [1]) [%] | % Inhibition of NA uptake [10 μM] (NA transporter) [%] | % Inhibition of 5-HT uptake [10 μM] (5-HT uptake; rat synaptosomes (and pons)) [%] |
| --- | --- | --- | --- | --- | --- |
| CCOc1ccccc1CN1CCC(CNC(=O)C2CCCc3sc(NC(=O)Cc4cccs4)nc32)C1 (centres unmarked) [Example 40] | – | – | – | 47 | 48 |
